Data: PubChem BioAssay (NCI)
Values joined by “and” are separate entries in the source; they are usually repeats but may differ in a detail not shown here. Identical values can stand only once.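 All cell lines were grown in 96-well plates and treated with compound for 48 hours. At the GI50, growth is halved. At the TGI there is no net growth.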

Legend:
Assay in all cases: NCI tumour cell line growth inhibition, 48 h
[1] = system: ACHN renal
[2] = system: BT-549 breast
[3] = system: COLO 205 colon
[4] = system: HOP-92 NSCLC
[5] = system: NCI-H23 lung
[6] = system: OVCAR-8 ovarian
[7] = system: RPMI-8226 leukemia
[8] = system: SK-OV-3 ovarian
[9] = system: SW-620 colon
[10] = system: TK-10 renal

Structure (SMILES)	TGI [1]	TGI [2]	TGI [3]	TGI [4]	TGI [5]	TGI [6]	TGI [7]	TGI [8]	TGI [9]	TGI [10]	GI50 [2]	GI50 [6]	GI50 [1] [µM]	GI50 [3] [µM]	GI50 [4] [µM]	GI50 [5] [µM]	GI50 [7] [µM]	GI50 [8] [µM]	GI50 [9] [µM]	GI50 [10] [µM]
Cc1ccccc1NC(=O)O/N=C(\Cl)C(C)C	3.13 µM	12.6 µM	3.29 µM	4.08 µM	32 µM	33.8 µM	4.03 µM	32.8 µM	4.36 µM	8.19 µM	–	–	–	–	–	–	–	–	–	–
CCC1(c2ccc(N3C(=O)c4cccc5cc([N+](=O)[O-])cc(c45)C3=O)cc2)CCC(=O)NC1=O (configuration not stated)	43.5 µM	38.6 µM	> 100 µM	8.8 µM	> 66.2 µM	28 µM	> 100 µM	39.5 µM	> 100 µM	> 79.1 µM	–	–	–	–	–	–	–	–	–	–
C[C@]12CC[C@H]3[C@@H](CC=C4C[C@@H](N5CCCC5)CC[C@@]43C)[C@@H]1C[C@H](N1CCCCC1)[C@@H]2O	> 100 µM	> 100 µM	> 100 µM	> 100 µM	> 100 µM	> 100 µM	85.7 µM	> 100 µM	> 100 µM	> 100 µM	–	–	–	–	–	–	–	–	–	–
CC(C)(C)C1CCC2c3c([nH]c4ccccc34)C3C(=O)N(c4ccc([N+](=O)[O-])cc4)C(=O)C3C2C1 (configuration not stated)	> 100 µM	36.9 µM	21.1 µM	17.5 µM	33.7 µM	> 100 µM	> 100 µM	73.9 µM	> 100 µM	78.2 µM	–	–	–	–	–	–	–	–	–	–
O=C1NC(O)c2cc3ccccc3cc2O1 (configuration not stated)	> 100 µM	82.1 µM	> 100 µM	90.7 µM	> 100 µM	> 100 µM	> 100 µM	> 100 µM	> 100 µM	> 100 µM	–	–	–	–	–	–	–	–	–	–
C=C1c2nc3ccccc3n2C=C(c2ccc(C)cc2)N1c1ccc(OC)cc1	> 100 µM	> 100 µM	> 100 µM	> 100 µM	> 100 µM	> 100 µM	> 58.5 µM	> 100 µM	> 100 µM	> 100 µM	–	–	–	–	–	–	–	–	–	–
COC(=O)C1OC(O[C@H]2CC[C@]3(C)[C@H]4CC=C5[C@@H]6CC(C)(C)CC[C@]6(C(=O)OC6OCC(O)C(O)C6OC6OC(C)C(OC7OCC(O)C(O)C7O)C(O)C6O)[C@H](O)C[C@@]5(C)[C@]4(C)CC[C@H]3C2(C)C)C(O)C(O)C1O (some centres not stated)	14.6 µM and 14.9 µM	8.86 µM and 21.8 µM	3.02 µM and 3.31 µM	5.2 µM and 8.4 µM	4.76 µM and 6.24 µM	26.8 µM and 8.47 µM	> 100 µM and 21.3 µM	23.5 µM and 26.3 µM	> 57 µM and 27.2 µM	21.3 µM and 21.5 µM	3.06 µM and 7.31 µM	11.8 µM and 2.76 µM	–	–	–	–	–	–	–	–
CC(C)(C)C(=O)Nc1c(C=O)ccc2[nH]cnc12	> 100 µM	> 100 µM	> 100 µM	> 100 µM	> 100 µM	> 100 µM	> 100 µM	> 100 µM	> 100 µM	> 100 µM	–	–	–	–	–	–	–	–	–	–
O=C(Nc1ccccc1)N1CCN(C(=O)Nc2ccccc2)C1=S	> 100 µM	> 100 µM	> 100 µM	63.5 µM	55.4 µM	> 100 µM	> 100 µM	76.3 µM	> 100 µM	> 100 µM	–	–	–	–	–	–	–	–	–	–
CC(=O)CC1(CBr)Nc2ccc([N+](=O)[O-])cc2NC1=O (configuration not stated)	> 100 µM	> 100 µM	> 100 µM	> 100 µM	> 100 µM	> 100 µM	> 100 µM	> 100 µM	> 100 µM	> 100 µM	–	–	–	–	–	–	–	–	–	–
O=CCCCCCOCc1ccccc1	> 100 µM	> 100 µM	> 100 µM	> 100 µM	> 82.6 µM	> 100 µM	> 56.8 µM	> 100 µM	> 100 µM	> 100 µM	–	–	–	–	–	–	–	–	–	–
Clc1ccc2c(c1)N(CCCN1CCCC13CCCCC3)c1ccccc1S2	47.5 µM	32.5 µM	> 54.9 µM	38.2 µM	44.2 µM	42.6 µM	11.3 µM	57.7 µM	40.7 µM	29.7 µM	–	–	–	–	–	–	–	–	–	–
O=S(=O)(Nc1nc2ccccc2nc1N1CCCCCC1)c1ccccc1	86.7 µM	50.1 µM	> 100 µM	37.4 µM	44.2 µM	> 100 µM	> 100 µM	89.6 µM	65.3 µM	40 µM	–	–	–	–	–	–	–	–	–	–
COc1nc(Cl)nc(N[C@H](C)c2c3ccccc3cc3ccccc23)n1	31.7 µM	32.5 µM	28.1 µM	46.4 µM	31.8 µM	28.4 µM	21.1 µM	29.3 µM	28.8 µM	14.8 µM	–	–	–	–	–	–	–	–	–	–
Cc1cn(CCCCCCOC(=O)NC(CCCNC(N)=O)C(=O)O)c(=O)[nH]c1=O (configuration not stated)	> 100 µM	> 100 µM	> 100 µM	> 100 µM	> 100 µM	> 100 µM	> 100 µM	> 100 µM	> 100 µM	> 100 µM	–	–	–	–	–	–	–	–	–	–
CCOC(=O)NC(=S)N(CC(=O)c1cc(OC)c(OC)c(OC)c1)c1ccc(Cl)cc1	> 100 µM	> 100 µM	> 100 µM	> 100 µM	> 100 µM	> 100 µM	> 100 µM	> 100 µM	> 100 µM	> 100 µM	41.6 µM	> 100 µM	> 100	> 100	38.9	> 100	30.2	> 100	> 100	36.9

Structure (SMILES)	TGI [1]	TGI [2]	TGI [3]	TGI [4]	TGI [5]	TGI [6]	TGI [7]	TGI [8]	TGI [9]	TGI [10]	GI50 [2]	GI50 [6]	GI50 [1] [µM]	GI50 [3] [µM]	GI50 [4] [µM]	GI50 [5] [µM]	GI50 [7] [µM]	GI50 [8] [µM]	GI50 [9] [µM]	GI50 [10] [µM]
C[n+]1cccc2ccc3cccnc3c21	> 100 µM	> 100 µM	70 µM	> 100 µM	> 100 µM	> 100 µM	> 100 µM	> 100 µM	> 100 µM	> 100 µM	–	–	–	–	–	–	–	–	–	–
Oc1ccc(C(O)C2CCCCN2)cc1O (configuration not stated)	> 100 µM	> 100 µM	> 100 µM	> 100 µM	> 100 µM	> 100 µM	> 100 µM	> 100 µM	> 100 µM	> 100 µM	–	–	–	–	–	–	–	–	–	–
NC(=O)[C@H](Cc1ccc(O)cc1)Nc1c(O)c2c(c(O)c1Cl)C(=O)C=CC2=O	6.61 µM	5.26 µM	3.36 µM	4.72 µM	> 8.2 µM	> 6.26 µM	7 µM	> 10 µM	2.82 µM	> 6.51 µM	–	–	–	–	–	–	–	–	–	–
COP(=O)(OC)OCN(C)CC/C=C(\C)CC/C=C(\C)CCC=C(C)C	64.2 µM	30 µM	34 µM	34.8 µM	34.7 µM	29.5 µM	28.3 µM	> 100 µM	30.4 µM	21.9 µM	–	–	–	–	–	–	–	–	–	–
COc1ccc(CCNC(=O)Cc2ccccc2CO)cc1OC	> 100 µM	> 100 µM	> 100 µM	> 100 µM	> 100 µM	> 100 µM	> 100 µM	> 100 µM	> 100 µM	> 100 µM	–	–	–	–	–	–	–	–	–	–
CC(C)(CO[C@H]1C[C@H]2CC[C@@]1(C)C2(C)C)[N+](=O)[O-]	> 100 µM	45.5 µM	31.4 µM	43.4 µM	65.6 µM	56.8 µM	38.7 µM	> 100 µM	59.8 µM	34 µM	–	–	–	–	–	–	–	–	–	–
ClC1=NN=C(c2c[nH]c3ccccc23)CC1NCc1ccccc1 (configuration not stated)	> 100 µM	> 100 µM	> 100 µM	> 100 µM	> 100 µM	> 100 µM	> 100 µM	> 100 µM	> 100 µM	> 100 µM	–	–	–	–	–	–	–	–	–	–
Cc1c(C)c2c(c(N)c1C#N)C(=O)N(N)C2=O	> 100 µM	> 100 µM	> 100 µM	> 100 µM	> 100 µM	> 100 µM	> 100 µM	> 100 µM	> 100 µM	> 100 µM	–	–	–	–	–	–	–	–	–	–
COc1ccc(N2C(=O)C3c4[nH]c5c(C)cccc5c4C4CCC(C(C)C)CC4C3C2=O)cc1 (configuration not stated)	47.2 µM	56 µM	> 100 µM	34.4 µM	40.7 µM	42.9 µM	> 100 µM	47.7 µM	45.7 µM	76.8 µM	–	–	–	–	–	–	–	–	–	–
COC1/C=C/C(C)C(O)CC(O)/C=C/C(C)C(C(C)C(OC)C(C)CCC(=O)C(C)C(C/C=C/N(C)C=O)OC)OC(=O)/C=C/C=C(\C)CC(OC)CC2=CC(=O)O[C@@H](C(C)C(OC)C1)[C@H]2O (some centres not stated)	0.13 µM	1.5 µM	0.0885 µM	0.0106 µM	0.0437 µM	0.475 µM	0.124 µM	0.108 µM	0.267 µM	0.0551 µM	–	–	–	–	–	–	–	–	–	–
Cn1c(=O)c2c(nc3[nH]c(=O)c(Br)cn32)n(C)c1=O	> 100 µM	> 100 µM	> 100 µM	> 100 µM	> 100 µM	> 100 µM	> 100 µM	> 100 µM	> 100 µM	> 100 µM	–	–	–	–	–	–	–	–	–	–
O=C1[C@@H]2[C@@H](CN3CN(c4ccccc4)N=C(c4ccccc4)[C@@]23c2ccccc2)C(=O)N1c1ccccc1	3.69 µM	13.2 µM	3.83 µM	3.86 µM	23.6 µM	13.9 µM	12.4 µM	27.7 µM	3.84 µM	3.13 µM	–	–	–	–	–	–	–	–	–	–
COc1cc2c(cc1OC)C(=O)N(c1ccc(OCCN3CCCC3)cc1)C2	> 100 µM	> 100 µM	> 100 µM	> 100 µM	> 100 µM	> 100 µM	> 100 µM	> 100 µM	> 100 µM	> 100 µM	–	–	–	–	–	–	–	–	–	–
O=C(CNc1ccccc1C(=O)O)Nn1cnc2ccc(S(=O)(=O)Nc3ccccc3C(=O)O)cc2c1=O	> 100 µM	> 100 µM	> 100 µM	> 100 µM	> 100 µM	> 100 µM	> 100 µM	> 100 µM	> 100 µM	> 100 µM	–	–	–	–	–	–	–	–	–	–
COC(=O)[C@]1(c2cc3ccccc3n2S(=O)(=O)c2ccccc2)CC2CN(C(=O)OCc3ccccc3)C1C1OC(C)(C)OC21 (some centres not stated)	> 100 µM	> 100 µM	> 100 µM	> 100 µM	> 100 µM	> 100 µM	> 100 µM	> 100 µM	> 100 µM	> 100 µM	–	–	–	–	–	–	–	–	–	–
